Reference: patent US5847160A, “Acetylenes disubstituted with 2-tetrahydropyranoxy-aryl and aryl of heteroaryl groups having retinoid-like biological activity” (Allergan, priority 1997, dated 1998)

test system: ornithine decarboxylase (ODC); experiment: ODC assay: inhibition of TPA induction of ODC activity; assay type: in vivo; conditions: at conc 30 (nmol); TPA-induced ODC
Description: The retinoic acid-like activity of these compounds is confirmed through the classic measure of retinoic acid activity involving the effects of retlnoic acid on ornithine decarboxylase. The original work on the correlation between retinoic acid and decrease in cell proliferation was done by Verma & Boutwell, Cancer Research, 1977, 37,2196-2201. That reference discloses that ornithine decarboxylase (ODC) activity increased precedent to polyamine biosynthesis. It has been established elsewhere that increases in polyamine synthesis can be correlated or associated with cellular proliferation. Thus, if ODC activity could be inhibited, cell hyperproliferation could be modulated. […] Activity of exemplary compounds of the present invention in the above- described ODC assay is disclosed in Table 2 which provides either IC80 (or other measured per cent inhibition at the indicated concentration) for the respective exemplary compound.

| SMILES | % of inhib |
| --- | --- |
| CCOC(=O)c1ccc(C#Cc2ccc(OC3CCCCO3)c(C34CC5CC(CC(C5)C3)C4)c2)cc1 (stereo not drawn) [Compound 9] | 49% |
| COC(=O)c1ccc(C#Cc2ccc(OC3CCCCO3)c(C34CC5CC(CC(C5)C3)C4)c2)cc1 (stereo not drawn) [Compound 25] | 61% |

same assay, conditions: at conc 300 (nmol); TPA-induced ODC

| SMILES | % of inhib |
| --- | --- |
| O=C(O)c1ccc(C#Cc2ccc(OC3CCCCO3)cc2)nc1 (stereo not drawn) [Compound 15, 6-[2-[[1-(2-tetrahydropyranoxy)]-4-phenyl]ethyn-1-yl]nicotinic acid] | 44% |
| CCOC(=O)c1ccc(C#Cc2cccc(OC3CCCCO3)c2)nc1 (stereo not drawn) [Compound 16, Ethyl 6-[2-[[1-(2-tetrahydropyranoxy)]-3-phenyl]ethyn-1-yl]nicotinate] | 52% |
| CCOC(=O)c1ccc(C#Cc2ccc(C34CC5CC(CC(C5)C3)C4)c(OC3CCCCO3)c2)nc1 (stereo not drawn) [Compound 17] | 68% |
| CCOC(=O)c1ccc(C#Cc2ccc(C34CC5CC(CC(C5)C3)C4)c(OC3CCCCO3)c2)cc1 (stereo not drawn) [Compound 18, Ethyl 4-[2-[[2-(1-adamantyl)-1-(2-tetrahydropyranoxy)]-5-phenyl]ethyn-1-yl]benzoate] | 45% |
| O=C(O)c1ccc(C#Cc2ccc(C34CC5CC(CC(C5)C3)C4)c(OC3CCCCO3)c2)nc1 (stereo not drawn) [Compound 19] | 45% |

test system: ornithine decarboxylase (ODC); experiment: not given; conditions: general knowledge; cited from earlier work

| SMILES | effect on ODC activity |
| --- | --- |
| CCCCCCCCCCCCCC(=O)O[C@@H]1[C@@H](C)[C@@]2(O)[C@@H](C=C(CO)C[C@]3(O)C(=O)C(C)=C[C@@H]23)[C@@H]2C(C)(C)[C@]12OC(C)=O [12-0-tetradecanoylphorbol-13-acetate] | induces ODC activity |
| CC1=C(/C=C/C(C)=C/C=C/C(C)=C/C(=O)O)C(C)(C)CCC1 [Retinoic acid] | inhibits this induction of ODC activity by TPA |
